Reference: US10499643B2, “Synergistic herbicidal composition and the method of controlling the growth of undesired plants” (JIANGSU ROTAM CHEMISTRY CO., LTD, priority 2016, dated 2019)

System: gramineous weeds, broadleaf weeds, sedge weeds
Assay: Post-emergence test: stem and leaf treatment of potted weeds, fresh weight inhibition rate, synergy by Colby's equation
Type: in vivo
Method: The assessment on the synergistic effect of mixing two or more herbicidal active ingredients is determined based on the Colby's equation as described in “Calculation Synergistic and Antagonistic Response of Herbicide Combinations (Weeds 15/1 (1967), S. R. Colby)”.
Use stem and leaf treatment for potted grown plant (NY/T 1155.4-2006): fill a plastic pot (6 cm height, 9 cm diameter) with a quantity of soil and sow 15 to 20 seeds of monocotyledonous weeds and dicotyledonous weeds in the plastic pot, cover it with 0.5 to 1 cm thick of fine soil and then put it in greenhouse for cultivation. When weeds grow to the 2 to 4 leave stage, conduct the stem and leaf spray treatment with 1 mL herbicidal solution on each pot and repeat four times for each treatment and leave some pots untreated as control group. Keep the treated pots in a greenhouse for cultivation and observe the growing status of target weeds periodically. Conduct the visual test on the target weeds regarding the damage symptoms and growth inhibition effect after 21 days. Weigh up the fresh weight above the ground or plant fresh weight and evaluate the toxicity of the herbicidal formulation on target weeds based on the fresh weight inhibition rate of the target.
Prepare the following three formulations according to specific weight percentages: 1. Pyroxasulfone; 2. […] After that, dilute above formulations with water to obtain diluted formulations.
Conduct visual assessment the damage symptom and growth inhibition status of target weeds after 21 days. Weigh up the fresh weight above the ground and calculate the inhibition rate of fresh weight (%).
The assessment on the synergistic effect of mixing two or more herbicidal active ingredients is determined based on the Colby's equation as described in “Calculation Synergistic and Antagonistic Response of Herbicide Combinations (Weeds 15/1(1967), S. R. Colby)”.
Wherein, X represents Fresh Weight Inhibition Rate of Pyroxasulfone when applied alone at certain application rate against target weeds;

Compound | inhibition at 1 g/ha (post-emergence, Pyroxasulfone 1 g ai/ha alone, read-out: Herbicidal Activity % Experimental Data) [%] | inhibition at 5 g/ha (post-emergence, Pyroxasulfone 5 g ai/ha alone, read-out: Herbicidal Activity % Experimental Data) [%] | inhibition at 10 g/ha (post-emergence, Pyroxasulfone 10 g ai/ha alone, read-out: Herbicidal Activity % Experimental Data) [%] | inhibition at 25 g/ha (post-emergence, Pyroxasulfone 25 g ai/ha alone, read-out: Herbicidal Activity % Experimental Data) [%] | inhibition at 50 g/ha (post-emergence, Pyroxasulfone 50 g ai/ha alone, read-out: Herbicidal Activity % Experimental Data) [%] | Herbicidal Activity % Experimental Data (Thifensulfuron methyl 1 g ai/ha alone) [%] | Herbicidal Activity % Experimental Data (Thifensulfuron methyl 5 g ai/ha alone) [%] | Herbicidal Activity % Experimental Data (Thifensulfuron methyl 10 g ai/ha alone) [%] | Herbicidal Activity % Experimental Data (Thifensulfuron methyl 25 g ai/ha alone) [%] | Herbicidal Activity % Experimental Data (Thifensulfuron methyl 50 g ai/ha alone) [%]
Cn1nc(C(F)(F)F)c(CS(=O)(=O)C2=NOC(C)(C)C2)c1OC(F)F [Pyroxasulfone, 3-[5-(difluoromethoxy)-1-methyl-3-(trifluoromethyl)pyrazol-4-ylmethylsulfonyl]-4,5-dihydro-5,5-dimethyl-1,2-oxazole] | 11 | 22 | 40 | 49 | 63 |  |  |  |  | 
COC(=O)c1sccc1S(=O)(=O)NC(=O)Nc1nc(C)nc(OC)n1 [Thifensulfuron methyl] |  |  |  |  |  | 0 | 15.5 | 31.2 | 55.1 | 60.3
